Results as given in US20230192718A1, “BICYCLIC ENONE CARBOXYLATES AS MODULATORS OF TRANSPORTERS AND USES THEREOF” (NIROGY THERAPEUTICS, INC., priority 2018, published 2023).

Columns and labels:
[1] = tested on: panel of solid and haemotological tumor cell lines; test: MTS cell proliferation assay (cytotoxicity); assay type: cell-based; settings: 72 hours incubation, MTS readout
Method: MTS Cell Proliferation Assay
The anti-proliferation effect of MCT inhibition was investigated across a panel of solid and haemotological tumor cell lines. Cells were routinely cultured in their appropriate growth medium. On day 1, between 5,000-20,000 cells/well were plated into 96-well plates. 100 μL of phosphate buffered saline solution was added to the external wells to prevent media evaporation. Plates were incubated in growth medium overnight at 37° C. in the presence of 5% CO2. On day 2, dry weight compound stocks were dissolved to a concentration of 20 mM in 100% DMSO. Compounds were further diluted in the assay medium; 10 mM lactate medium (without glucose, pyruvate, and glutamine) or RPMI medium or appropriate medium to generate a final dose range of 10 nM to 100 μM. Growth medium in the 96-well plate was replaced with the assay medium (10 mM lactate medium or RPMI medium or appropriate medium), and compounds were added to each well in the plate at different concentrations via serial dilution or pre-prepared solutions in assay medium. Plates were then incubated at 37° C. in the presence of 5% CO2 for a further 72 hours. On day 5, 20 μL of CellTiter 96 AQ MTS reagent was added to each well and the plate was returned to the incubator for 2 hours. In case of lactate medium, the medium was replaced by 100 μL of growth medium and 20 μL of CellTiter 96 AQ MTS reagent. MTS is bioreduced by NADPH or NADH produced by dehydrogenase enzymes in metabolically active cells into a coloured formazan product that is soluble in tissue culture medium. The amount of coloured formazan product is directly proportional to the number of living cells in culture. The absorbance of the plates was read on a Synergy H4 plate reader using […] measurement wavelength. Dose response curves were plotted and IC50 values were calculated using GraphPrism. The IC50 value is equivalent to the concentration of compound that causes 50% inhibition of growth calculated from the compound treated signal to the vehicle treated signal.
MTT Cell Proliferation Assay
The MIT assay is a colorimetric assay for assessing cell viability similar to MTS assay. NAD(P)H-dependent cellular oxidoreductase enzymes may, under defined conditions, reflect the number of viable cells present. These enzymes are capable of reducing the tetrazolium dye MTT 3-(4,5-dimethylthiazol-2-yl)-2,5-diphenyltetrazolium bromide to its insoluble formazan, which has a purple color. MTT powder is dissolved in Dulbecco's Phosphate Buffered Saline, pH=7.4 (DPBS) to 5 mg/ml as stock solution. Cells and test compounds in 96-well plates were prepared containing a final volume of 100 μL/well as described in the MTS assay. The assay was performed similar to MTS assay above. […] The absorbance was read at 570 nm.

[2] = tested on: MDA-MB-231 human breast carcinoma cells; test: Tumor xenograft model (orthotopic, NOD-SCID mice); assay type: in vivo; settings: nine days after start of treatment
Method: In order to test the in vivo efficacy of the invention, Example 9 was tested according to the protocol of Iorns to al. [Iorns E, Drews-Elger K, Ward T M, Dean S, Clarke J, Berry D, et al. (2012) A New Mouse Model for the Study of Human Breast Cancer Metastasis. PLoS ONE 7(10): e47995. https://doi.org/10.1371/journal.pone.0047995] Twenty-eight female NOD-SCID mice (Charles River) were injected orthotopically with basal MDA-MB-231 human breast carcinoma cells into the mammary fat pads. […] Mice were dosed qd with 30 mg/kg and 75 mg/kg p.o. of Example 9. At nine days after start of treatment tumor volume was roughly 50% of control in mice dosed at 30 mg/kg and roughly 30% of control in mice dosed at 75 mg/kg.

| Compound | IC50 [1] [µM] | tumor volume, % of control ([2]; 30 mg/kg p.o. qd) | tumor volume, % of control ([2]; 75 mg/kg p.o. qd) |
| --- | --- | --- | --- |
| CN(Cc1ccccc1)c1cc2oc(=O)c(C(=O)O)cc2s1 [Example 1, 2-(benzyl(methyl)amino)-5-oxo-5H-thieno[3,2-b]pyran-6-carboxylic acid] | < 1 | – | – |
| CN(Cc1ccc(F)cc1)c1cc2oc(=O)c(C(=O)O)cc2s1 [Example 2, 2-((4-fluorobenzyl)(methyl)amino)-5-oxo-5H-thieno[3,2-b]pyran-6-carboxylic acid] | < 1 | – | – |
| COc1cccc(C(=O)N(C)c2cc3oc(=O)c(C(=O)O)cc3s2)c1 [Example 9, 2-(3-methoxy-N-methylbenzamido)-5-oxo-5H-thieno[3,2-b]pyran-6-carboxylic acid] | < 1 | roughly 50 % of control | roughly 30 % of control |
| COc1ccccc1C(=O)N(C)c1cc2oc(=O)c(C(=O)O)cc2s1 [Example 17, 2-[(2-Methoxy-benzoyl)-methyl-amino]-5-oxo-5H-thieno[3,2-b]pyran-6-carboxylic acid] | < 1 | – | – |
